In US4668684A, “Combination of flupirtin and anticholinergic acting spasmolytic” (priority 1985, dated 1987):
Counter-ions that a name gives are not always drawn. Like-named read-outs stand apart in the source and are kept apart here.

Columns and labels:
[1] = system: writhing syndrome (mouse); assay: Acetic acid test (Writhing test) on the mouse, analgetic effect; type: in vivo, NMRI-Mouse; conditions: alone; for ED50: Mus musculus, po, 0.5 h, read-out: ED50 after 30 minutes; for Analgetic Effect in %: average of 10 mice
[2] = system: guinea pig small intestine; assay: Spasmolytic effect on the guinea pig small intestine in situ (acetylcholine spasm); type: in vivo; conditions: for Spasmolytic activity (in words) / % Spasmolytic Effect: alone; for Spasmolytic activity (in words): intraduodenally; for % Spasmolytic Effect: negative value
Experimental: A balloon catheter was introduced into the ileum of guinea pigs narcotized with urethane (1.8 g/kg subcutaneously) after tracheotomy (tying up a tracheal channel to make breathing easier) and the catheter filled with air. Rhythmic contractions were carried out by the intestine, the so-called […] (dependent upon filling), through which a pressure is exerted on the rubber balloon. The pressure […] changes were recorded on a linear recorder via a pressure recorder connected to the balloon catheter and a carrier frequency bridge (TF of Hellige Co.). On one there can be measured the spontaneous […], on the other the spasms released by superfusion of […] (acetylcholine iodide, barium chloride or carbachol). By previously giving the […] intravenously or intraduodenally the height of the spasms released is retarded and can be determined in percent spasmolysis compared to a starting value. There is given as spasmolytic effect or spasmolysis how great a percent of spasm is liberated by the spasmogen (e.g. acetylcholine iodide) compared to the value which originates from the spasmogen (on the same animal).

[3] = in vivo; conditions: mouse, po
[4] = system: gastrointestinal passage (guinea pigs); assay: Carbon transport model (influence on the gastrointestinal passage); type: in vivo, guinea pig; conditions: alone; for ED50: peroral, linear regression; for Spasmolytic Effect, Retardation in %: negative value
Experimental: Relying on Komlus and Pet/o/ cz (and modifications) (1970) Arzneim Forsch. Volume 20, pages 1338-1357 guinea pigs received 30 minutes after being given the substance a 10% carbon suspension in demineralized water in a volume of 1 ml/animal dispensed with the stomach probe. 0.5 hours later the animals were killed and starting from the stomach there was measured on one animal the entire length of intestine, on the others the length of the stretch blackened by the carbon. The stretch changed by the carbon was calculated in percent of the entire length in order to compensate for the different intestinal lengths of the individual animals in the evaluation of the effect of the substance. The effect on the gastro-intestinal passage is given from the comparison between the control and the animals (average value) treated with the substances. Ascertaining the ED50 (dosage in mg/kg at which there is 50% retardation of the carbon transport) is by means of linear regression.
Retardation of carbon transport signifies spasmolytic effect. The greater this retardation the greater also is the spasmolytic effect.
*Calculation of the ED50 by means of linear regression

[5] = system: gall bladder of the mouse; assay: Gall bladder model on the mouse, spasmolytic effect; type: in vivo, NMRI-Mouse; conditions: alone; for ED50: Mus musculus, po, peroral, linear regression
Experimental: The experiment is carried out relying on the methods of […] and Toson, J. Pharmacol. Methods Volume 7, pages 193 et. seq. (1982). The principle of this method is the gravimetric measurement of the gall bladder of the mouse. The gall bladder was stimulated through dispensation of egg yolk for delivery of bile. This delivery was carried out through natural spasms of the gall bladder. By previously dispensing a spasmolytically acting test material these spasms of the gall bladder were retarded and therewith likewise the delivery of bile. Thus the heavier the gall bladder is after dispensing the egg yolk the less bile it has delivered. The weight of the gall bladder in this test therefore is a measure of the spasmolytic effect of a material. […] The control animals received Methocel in the corresponding amount. […] Because of the evaluation 2 control groups must be present. […] The egg yolk suspension consisted of 3 parts by weight egg yolk in 7 parts by weight NaCl 0.9%. For this reason control group No. 1 also received 1 ml NaCl 0.9%. […] The gall bladder was prepared and weighed. The evaluation was carried out according to the formula: [(A-B)/(C-B)]×100=% Activity […]

With CCOC(=O)Nc1ccc(NCc2ccc(F)cc2)nc1N [Flupirtin (Maleate), 2-amino-3-carbethoxyamino-6-(4-fluoro-benzylamino)-pyridine] the ED50 ([1]; per os, linear regression) was 44.7 mg/kg, the “Analgetic Effect in %” value ([1]; 20.0 mg/kg per os) was 12.0% and the “Analgetic Effect in %” value ([1]; 40.0 mg/kg per os) was 54.0%. For the same compound, the “Analgetic Effect in %” value ([1]; 80.0 mg/kg per os) was 70.0% and the “Spasmolytic effect / ED50 (in words)” value ([2]; alone, 10.0, 30.0 and 50.0 mg/kg intraduodenally, 30 minutes after dispensation) was “no spasmolytic”.
In the case of CCOC(=O)Nc1ccc(NCc2ccc(F)cc2)nc1N [Flupirtin (Gluconate), 2-amino-3-carbethoxyamino-6-(4-fluoro-benzylamino)-pyridine], the “Analgetic Effect in %” value ([1]; 0.56 mg/kg per os) is reported as 19.2%, the “Analgetic Effect in %” value ([1]; 1.12 mg/kg per os) is reported as 28.0% and the “Analgetic Effect in %” value ([1]; 2.24 mg/kg per os) is reported as 37.6%. For the same compound, the “Analgetic Effect in %” value ([1]; 4.47 mg/kg per os) was 46.4%, the “Analgetic Effect in %” value ([1]; 8.93 mg/kg per os) was 38.4% and the “Analgetic Effect in %” value ([1]; 17.85 mg/kg per os) was 22.4%. For the same compound, the “Analgetic Effect in %” value ([1]; 35.7 mg/kg per os) was 61.6%.
With CCOC(=O)Nc1ccc(NCc2ccc(F)cc2)nc1N [Flupirtin, 2-amino-3-carbethoxyamino-6-(4-fluoro-benzylamino)-pyridine] the “Spasmolytic activity (in words)” value [2] was “no spasmolytic activity”, the LD50 [3] was 552 mg/kg and the ED50 [4] was “cannot be calculated”.
With CC[N+](C)(CC)CCOC(C)(c1ccccc1)C1CC2C=CC1C2.[Br-] (stereo not shown) [Ciclonium bromide] the “Analgetic Effect in %” value ([1]; 0.01 mg/kg per os) was 18.5%, the “Analgetic Effect in %” value ([1]; 0.1 mg/kg per os) was 46.3% and the “Analgetic Effect in %” value ([1]; 0.5 mg/kg per os) was 53.1%. The “ED50 after 30 minutes” value ([1]; per os, linear regression) was 0.26 mg/kg.
With CCCC[N+]1(C)C2CC(OC(=O)C(CO)c3ccccc3)CC1C1OC12 (stereo not shown) [Butylscopolammonium bromide, butylscopolammonium bromide] the ED50 ([1]; per os, linear regression) was 1.5 mg/kg, the “Analgetic Effect in %” value ([1]; 0.5 mg/kg per os) was 22.4% and the “Analgetic Effect in %” value ([1]; 1.0 mg/kg per os) was 48.4%. The “Analgetic Effect in %” value ([1]; 2.0 mg/kg per os) was 64.6%, the “Analgetic Effect in %” value ([1]; 4.0 mg/kg per os) was 59.0% and the “% Spasmolytic Effect” value ([2]; 50.0 mg/kg intraduodenally, 30 minutes after dispensation) was -13.1%. The “% Spasmolytic Effect” value ([2]; 100.0 mg/kg intraduodenally, 30 minutes after dispensation) was -37.9%, the “% Spasmolytic Effect” value ([2]; 200.0 mg/kg intraduodenally, 30 minutes after dispensation) was -35.0% and the “Spasmolytic activity (in words)” value [2] was “no dosage dependent spasmolytic activity”. The ED50 [5] was 117 mg/kg, the “Spasmolytic Effect in %” value ([5]; 3.0 mg/kg peroral) was 4.6% and the “Spasmolytic Effect in %” value ([5]; 10.0 mg/kg peroral) was 19.1%. For the same compound, the “Spasmolytic Effect in %” value ([5]; 30.0 mg/kg peroral) was 20.7%, the “Spasmolytic Effect in %” value ([5]; 100.0 mg/kg peroral) was 35.9% and the “Spasmolytic Effect in %” value ([5]; 300.0 mg/kg peroral) was 76.6%. The ED50 ([4]; Cavia porcellus, po, read-out: ED50) was 132 mg/kg, the “Spasmolytic Effect, Retardation in %” value ([4]; 30.0 mg/kg peroral) was -8.16% and the “Spasmolytic Effect, Retardation in %” value ([4]; 100.0 mg/kg peroral) was -58.39%. The “Spasmolytic Effect, Retardation in %” value ([4]; 300.0 mg/kg peroral) was -61.62%.
For CCOC(=O)Nc1ccc(NCc2ccc(F)cc2)nc1N [Flupirtin (HCl), 2-amino-3-carbethoxyamino-6-(4-fluoro-benzylamino)-pyridine], the ED50 [5] was 2.4 mg/kg, the “Spasmolytic Effect in %” value ([5]; 1.0 mg/kg peroral) was 30.06% and the “Spasmolytic Effect in %” value ([5]; 3.0 mg/kg peroral) was 64.36%. For the same compound, the “Spasmolytic Effect in %” value ([5]; 10.0 mg/kg peroral) was 69.25%, the “Spasmolytic Effect, Retardation in %” value ([4]; 20.0 mg/kg peroral) was -11.73% and the “Spasmolytic Effect, Retardation in %” value ([4]; 40.0 mg/kg peroral) was -21.55%. The “Spasmolytic Effect, Retardation in %” value ([4]; 80.0 mg/kg peroral) was -18.70% and the ED50 [4] was “not dosage depen-”.
